Results on three molecules are retold here after patent publication US20140066303A1, “COMPOSITIONS AND METHODS FOR IMPROVING THE COMPATIBILITY OF WATER SOLUBLE HERBICIDE SALTS” (DOW AGROSCIENCES LLC, priority 2012, published 2014).

Holding throughout (format): physicochemical
Series [1] is described as follows: Critical Crystallization Concentration (CCC) of 2,4-D DMA in spray mixtures with glyphosate potassium salt. Conditions: 2,4-D DMA + Roundup PowerMax 1:1 AE; no SAC, control sample; 342 ppm hardness water; 24 h ambient. An excerpt: (§1) Alternatively, the relative effectiveness of the surface active compatibilizers described herein at improving the compatibility of the aqueous herbicide solutions described herein can be determined by measuring the Critical Crystallization Concentration (CCC) of the aryloxyalkanoic acid salt, the pyridyloxyalkanoic acid salt, the arylcarboxylic acid salt, or the heteroarylcarboxylic acid salt of an inorganic cation such as, for example, the potassium salt of 2,4-D in a tank mix solution. The CCC of a particular composition can be measured by preparing saturated and over saturated solutions or mixtures of the composition and then measuring the concentration of the particular herbicidal carboxylic acid remaining in solution. […]
(§2) The CCC of 2,4-D compositions were measured using the following method. […] The CCC was determined by measuring the X-intercept of the extrapolated linear function of the crystal weight vs. 2,4-D wt % AE concentration. […] The amounts of 2,4-D and glyphosate salts were added to achieve desired AE concentrations of 2,4-D and glyphosate at 1:1 ratio, and the amount of water was calculated as a balance ingredient to achieve the final mixture volume of 100 ml. • 7. […]

A short description of series [2]: Critical Crystallization Concentration (CCC) of 2,4-D DMEA in spray mixtures with glyphosate potassium salt. Conditions: 2,4-D DMEA + Roundup PowerMax 1:1 AE; no SAC, control sample; 342 ppm water; 24 h ambient.
Excerpt: as §1, §2

Series [3] in a line: On-set pH of crystallization (OSPOC) of aqueous 2,4-D potassium solution, titration with sulfuric acid. Conditions: 3% AE w/w 2,4-D K in water; control, no SAC (0.0%); pH lowered with 0.2 N sulfuric acid. An excerpt:
Without intending to be bound by theory, the surface active compatibilizers described herein are believed to improve the compatibility of aqueous herbicide solutions comprised of at least one of a water soluble salt of an aryloxyalkanoic acid, a water soluble salt of a pyridyloxyalkanoic acid, a water soluble salt of an arylcarboxylic acid, a water soluble salt of a heteroarylcarboxylic acid and a water soluble salt of glyphosate, a suitable concentration of one or more inorganic cations, and a pH of less than about 6.5 by preventing or inhibiting the crystallization or precipitation of solids. The relative effectiveness of the surface active compatibilizers in preventing the formation of these solids can be estimated by measuring the on-set pH of crystallization (OSPOC) of the solids in a titration analysis procedure. The OSPOC of a particular composition can be measured, for example, by titrating a solution of an aryloxyalkanoic or a pyridyloxyalkanoic acid salt of an inorganic cation such as, for example, the potassium salt of 2,4-D with a strong acid such as, for example, sulphuric acid until solids or crystals begin forming at a particular pH value (the OSPOC). […]

`CNC.O=C(O)COc1ccc(Cl)cc1Cl` [2,4-D DMA, 2,4-D dimethyl ammonium salt]: the “2,4-D CCC” value in series [1] amounted to 0.89% AE. Consider `CN(C)CCO.O=C(O)COc1ccc(Cl)cc1Cl` [2,4-D DMEA, 2,4-D dimethylethanol ammonium salt], for which the “2,4-D CCC” value in series [2] is 1.04% AE. As for `O=C([O-])COc1ccc(Cl)cc1Cl.[K+]` [2,4-D K, 2,4-D potassium], the “On-Set pH of Crystallization (OSPOC)” value in series [3] is on record as 6.16.
